Test results taken from patent US9284307B2, “Macrocyclic serine protease inhibitors” (Idenix Pharmaceuticals LLC, priority 2009, dated 2016).

Experiments:
[1] = Cytotoxicity evaluation (Cell Titer 96 AQueous One), Table 2; type: cell-based; details: human; cellular viability; cell line not given
Protocol: For cytotoxicity evaluation, H1a-luc or Zluc cells were treated with compounds as described above and cellular viability was monitored using the Cell Titer 96 AQueous One Solution Cell Proliferation Assay (Promega). Plates were then read at 490 nm in a Victor^3V 1420 multilabel counter (Perkin Elmer) and CC50 concentrations were determined using Microsoft Excel and XLfit 4.1 software.

[2] = tested on: JFH-1 HCV virus (genotype 2a); experiment: Genotype 2a infectious virus assay (JFH-1, HCV core ELISA in HPC cells); type: cell-based; details: Hepatitis C virus, 120 h, 5 days
Protocol: The genotype 2a infectious virus assay measures the ability of a test compound to inhibit HCV replication in cell culture after 5 days of treatment at the time of HCV genotype 2a virus infection of a permissive human hepatoma cell line (HPC cells). The inhibition of HCV replication was measured by quantification of HCV core protein expression by an enzyme-linked immunosorbent assay (ELISA). Briefly, HPC cells were grown in DMEM containing glucose, L-glutamine and sodium pyruvate, 10% FBS, 100 IU/mL penicillin, 100 μg/mL streptomycin, 2 mM GlutaMAX, and non-essential amino acids. GlutaMAX was obtained from Invitrogen, Corp.; all other media reagents were obtained from Mediatech, Inc. For dose-response testing, ninety-six-well plates were seeded with HPC cells at a density of 2.5×10^3 cells/well in a volume of 50 μL, and incubated at 37° C./5% CO2. Three hours after plating, 50 μL of ten 5-fold serial dilutions of compound and 100 μL of genotype 2a virus were added, and cell cultures were incubated at 37° C./5% CO2. […]
The HCV in vitro infection core ELISA assay measures the ability of a test compound to inhibit replication of an infectious HCV (strain JFH-1; genotype 2a) in cell culture. […] The readout of the assay is quantification of HCV core protein by ELISA 5 days post infection with JFH-1 virus and treatment with a test compound. […]

[3] = target: T1, CYP2C9 (Homo sapiens, UniProt P11712); experiment: In vitro CYP450 inhibition screen, luminogenic assay, CYP2C9; type: in vitro ADME; details: CYP2C9 enzyme (BD Bioscience), probe substrate Luciferin-H, average of two independent experiments, read-out: IC50 (μM) or % Inhibition at 20 μM, CYP450 2C9
T1 construct: purchased BD Bioscience
Protocol: (§1) CYP2C8, 2C9, 2C19 and 2D6 (BD Bioscience) inhibition luminogenic assay was performed as per the protocol provided by Promega (P450-Glo™ Assay Technical Bulletin #TB325, P450-Glo™ Screening Systems Technical Bulletin #TB340). Test articles were prepared as 10 mM stock solutions in DMSO.
(§2) Data represent the average of two independent experiments. A represents inhibition of 5 to 10%. B represents inhibition of >10% to 20%. C represents inhibition of >20% to 30%. D represents inhibition of >30% to 40%. I represents an IC50 of 5 to 9 μM.

[4] = target: T2, CYP2C19 (Homo sapiens, UniProt P33261); experiment: In vitro CYP450 inhibition screen, luminogenic assay, CYP2C19; type: in vitro ADME; details: probe substrate Luciferin-H EGE, average of two independent experiments, read-out: IC50 (μM) or % Inhibition at 20 μM, CYP450 2C19
T2 construct: purchased BD Bioscience
Protocol: as §1, §2

[5] = target: T3, CYP2D6 (Homo sapiens, UniProt P10635); experiment: In vitro CYP450 inhibition screen, luminogenic assay, CYP2D6; type: in vitro ADME; details: CYP2D6 enzyme (BD Bioscience), probe substrate Luciferin-ME EGE, average of two independent experiments, read-out: IC50 (μM) or % Inhibition at 20 μM, CYP450 2D6
T3 construct: purchased BD Bioscience
Protocol: as §1, §2

[6] = target: T4, CYP3A4 (Homo sapiens, UniProt P08684); experiment: In vitro CYP450 inhibition screen, fluorogenic assay, CYP3A4; type: in vitro ADME; details: probe substrate 7-Benzyloxy-trifluoromethylcoumarin, average of two independent experiments, read-out: IC50 (μM) or % Inhibition at 20 μM, CYP450 3A4
T4 construct: purchased BD Bioscience 459100
Protocol: CYP1A2 (BD Bioscience Cat #459500), CYP2B6 (BD Bioscience cat #459220), and CYP3A4 (BD Bioscience Cat #459100) inhibition fluorogenic assays were performed according to the manufacturer's protocol. Test articles were prepared as 10 mM stock solutions in DMSO.
as §2

T2 sequence (P33261 whole entry): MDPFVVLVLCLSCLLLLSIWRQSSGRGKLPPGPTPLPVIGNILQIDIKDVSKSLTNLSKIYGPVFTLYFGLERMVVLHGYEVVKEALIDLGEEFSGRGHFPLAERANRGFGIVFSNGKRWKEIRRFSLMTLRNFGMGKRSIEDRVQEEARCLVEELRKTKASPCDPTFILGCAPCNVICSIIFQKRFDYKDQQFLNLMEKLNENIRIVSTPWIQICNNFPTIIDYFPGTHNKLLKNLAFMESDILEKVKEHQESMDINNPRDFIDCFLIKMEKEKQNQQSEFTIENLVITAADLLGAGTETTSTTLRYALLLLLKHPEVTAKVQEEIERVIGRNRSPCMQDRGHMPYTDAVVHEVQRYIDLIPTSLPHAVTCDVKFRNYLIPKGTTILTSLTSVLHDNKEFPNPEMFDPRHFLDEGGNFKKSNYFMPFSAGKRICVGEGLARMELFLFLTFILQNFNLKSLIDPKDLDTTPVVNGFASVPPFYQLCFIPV
T3 sequence (P10635 whole entry): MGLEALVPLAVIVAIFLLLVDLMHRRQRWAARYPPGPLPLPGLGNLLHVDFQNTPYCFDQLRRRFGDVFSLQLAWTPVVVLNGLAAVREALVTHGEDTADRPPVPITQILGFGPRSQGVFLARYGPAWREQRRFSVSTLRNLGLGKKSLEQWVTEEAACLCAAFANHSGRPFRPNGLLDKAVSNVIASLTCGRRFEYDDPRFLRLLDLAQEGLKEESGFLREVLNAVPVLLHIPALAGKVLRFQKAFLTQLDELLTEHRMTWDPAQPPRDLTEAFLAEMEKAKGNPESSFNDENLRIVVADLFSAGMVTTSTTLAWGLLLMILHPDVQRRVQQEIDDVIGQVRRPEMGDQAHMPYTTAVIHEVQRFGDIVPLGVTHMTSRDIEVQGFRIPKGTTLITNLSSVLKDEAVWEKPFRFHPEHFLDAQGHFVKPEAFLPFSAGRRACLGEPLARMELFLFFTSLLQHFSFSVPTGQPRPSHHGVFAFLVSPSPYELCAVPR
T1 sequence (P11712 whole entry): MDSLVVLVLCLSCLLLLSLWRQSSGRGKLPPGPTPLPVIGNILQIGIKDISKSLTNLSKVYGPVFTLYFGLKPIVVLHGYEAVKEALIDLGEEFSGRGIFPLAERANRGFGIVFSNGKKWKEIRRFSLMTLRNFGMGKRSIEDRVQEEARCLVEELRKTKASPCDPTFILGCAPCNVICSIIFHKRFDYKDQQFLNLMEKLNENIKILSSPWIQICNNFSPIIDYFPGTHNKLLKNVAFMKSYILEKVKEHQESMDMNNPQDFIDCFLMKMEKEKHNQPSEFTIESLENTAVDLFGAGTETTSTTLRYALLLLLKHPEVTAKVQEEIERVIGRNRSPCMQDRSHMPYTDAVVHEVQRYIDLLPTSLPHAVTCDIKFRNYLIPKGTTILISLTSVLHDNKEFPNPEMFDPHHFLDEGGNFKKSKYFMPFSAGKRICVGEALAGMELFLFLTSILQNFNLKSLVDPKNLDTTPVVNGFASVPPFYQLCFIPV
T4 sequence (P08684 whole entry): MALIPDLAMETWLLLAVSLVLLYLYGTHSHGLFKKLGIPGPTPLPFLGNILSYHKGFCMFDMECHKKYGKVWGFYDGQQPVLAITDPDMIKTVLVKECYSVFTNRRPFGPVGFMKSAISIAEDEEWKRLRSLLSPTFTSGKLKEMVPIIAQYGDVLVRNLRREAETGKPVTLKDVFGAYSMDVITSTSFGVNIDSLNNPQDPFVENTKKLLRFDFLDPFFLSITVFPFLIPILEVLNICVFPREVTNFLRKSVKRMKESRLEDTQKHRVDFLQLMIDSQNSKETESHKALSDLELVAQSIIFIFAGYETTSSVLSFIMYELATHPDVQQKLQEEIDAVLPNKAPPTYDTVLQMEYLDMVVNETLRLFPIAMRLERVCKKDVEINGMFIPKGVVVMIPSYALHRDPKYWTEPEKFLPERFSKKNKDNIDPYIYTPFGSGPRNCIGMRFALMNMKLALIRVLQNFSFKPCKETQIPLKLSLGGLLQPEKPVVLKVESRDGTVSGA

For `C#Cc1csc(-c2cc(O[C@H]3CC[C@H]4C(=O)N(C)CCCC/C=C\[C@@H]5C[C@@]5(C(=O)NS(=O)(=O)C5(C)CC5)NC(=O)[C@@H]4C3)c3ccc(OC)c(C)c3n2)n1` [Compound 52, (1aR,3aR,5S,7aR,15aS,Z)-5-(2-(4-ethynylthiazol-2-yl)-7-methoxy-8-methylquinolin-4-yloxy)-9-methyl-N-(1-methylcyclopropylsulfonyl)-3,8-dioxo-1a,2,3,3a,4,5,6,7,7a,8,9,10,11,12,13,15a-hexadecahydro-1H-benzo[c]cyclopropa[g][1,6]diazacyclotetradecine-1a-carboxamide], the CC50 at 72 h [1] was over 75 µM, the EC50 [2] was under 1 µM and the inhibition at 20 µM [3] was 20 to 30%. It also gave an IC50 [4] of 9 to 15 µM, an inhibition at 20 µM [5] of 5 to 10% and an IC50 [6] of 15 to 20 µM.

In the case of `COc1ccc2c(O[C@H]3CC[C@H]4C(=O)N(C)CCCC/C=C\[C@@H]5C[C@@]5(C(=O)NS(=O)(=O)C5(C)CC5)NC(=O)[C@@H]4C3)cc(-c3nc(C(F)(F)F)cs3)nc2c1C` [Compound 51], the CC50 at 72 h [1] is reported as 10 to 75 µM, the EC50 [2] is reported as under 1 µM and the inhibition at 20 µM [3] is reported as 20 to 30%. The IC50 [4] was 9 to 15 µM, the inhibition at 20 µM [5] was 20 to 30% and the IC50 [6] was 20 to 25 µM.
